Data on 14 compounds can be found in patent publication US20120101257A1, “PROCESSES FOR PREPARING AMINO-SUBSTITUTED GAMMA-LACTAMS” (UNIVERSITE DE MONTREAL, priority 2009, published 2012).

Series [1] concerns TF-1 cells. In words: [3H]thymidine incorporation, IL-1 induced TF-1 cell proliferation. The note with it: for percentage of proliferation of TF-1 cells pre-treated with peptide: IL-1 induced, [3H]thymidine incorporation as in Example 59. It is filed as cell-based, human. Here is the method: Human TF-1 cells (5×10^4 cells/well) were cultured in complete RPMI medium (GIBCO RPMI Medium 1640, Invitrogen) supplemented with GM-CSF (Granulocyte Macrophage Colony Stimulating Factor, 2 ng/ml; BD Biosource). Cells were deprived of growth factors for 18 h before preincubation with lactam peptide (1 μM) followed by treatment with IL-1β (10 or 25 ng/mL). After 24 h incubation at 37° C., [^3H]thymidine (1 μCi/mL; Amersham) was added and the cells were incubated for another 24 h. Cells were harvested, washed two times with PBS (10 mM Na2HPO4, 2 mM KH2PO4, 137 mM NaCl, 2.7 mM KCl; pH 7.4) and lysed with a 0.1 N NaOH/0.1% Triton X-100 solution. Scintillation cocktail (Fisher Scientific, 8 mL/sample) was added to the lysate, and after 3 h, radioactivity was measured (Beckman Multi-Purpose Scintillation Coulter Counter LS6500). Results were analyzed by one- or two-way ANOVA factoring for concentration or treatments. Postanova comparisons among means were performed using the Tukey-Framer method. Statistical significance was set at p<0.05. Data are presented as mean±SEM.
In general terms: Incorporation of labelled thymidine or its analogues reports DNA synthesis.

Series [2] deals with T1, GHS-R1a receptor (Homo sapiens, UniProt Q92847).
T1 construct: expressed in transfected cells; host or cells: LLC-PK1 cells, transient calcium phosphate transfection, membrane preparation
The experiment in a line: GHS-R1a receptor competitive binding assay with 125I-Ghrelin. The following applies: competition with 125I-Ghrelin; GHS-R1a transiently transfected in LLC-PK1 cells. Here is the method:
Transfection LLC-PK1 cells were seeded at 1.5×10^6 cells/10 cm Petri-dishes and grown for 24 h in DMEM high-glucose (4.5 g/L) with 10% foetal bovine serum supplemented with penicillin (10,000 Units/ml) and streptomycin (10,000 ug/ml), and cultured at 37° C., with 5% CO2. The medium was then replaced for another 4-5 hours before CaPO4 calcium phosphate transfection. The DNA solution consists of 40 μg of DNA in a volume of 500 μl in which was added 500 μl of 2 mM Tris-HCl pH 8.0, 0.2 mM EDTA pH 8.0 containing 500 mM CaCl2, to a final volume of 1 ml. Then 1 ml of 50 mM Hepes, 280 mM NaCl, 1.5 mM Na2HPO4 pH to 7.1 (HBSS) was added by alterning 1 drop/2 air bubbles. The transfection mix reaction was incubated at RT for 30 min. After the incubation period, 1 ml of the mix was added to each plate and distributed evenly for incubation. The media was replaced with standard DMEM-high glucose media for another 24 h and cells were collected for membrane preparation.
Membrane preparation The experiment was carried out 4° C. unless specified. Cells were washed 2 times with PBS and with the homogenization buffer (HB) consisting of 50 mM Tris, 5 mM MgCl2, 2.5 mM EDTA, 30 ug/ml bacitracin at pH 7.3 and were scraped in Eppendorf tubes. Cells were lysed with 2 cycles of freeze/thawing using liquid nitrogen and were then centrifuged at 4° C. for 20 min at 10,000 g to collect the membranes. The membranes were re-suspended in a small volume of HB and aliquoted for storage at −80° C.
The non-specific binding was determined by excess of competitive ligand at 10^−5M. The reaction was carried out at RT for 1 h.

For series [3], the target named is T2, CD36 (Rattus norvegicus, UniProt Q07969).
T2 construct: the rat cardiac membranes (200 μg) as source of CD36; from tissue; host or cells: Sprague Dawley rat heart (cardiac membranes)
In words: Competitive covalent CD36 binding assay using photoactivatable [125I]-Tyr-Bpa-Ala-Hexarelin. The following applies: for IC50: displacement of [125I]-Tyr-Bpa-Ala-Hexarelin, rat cardiac membranes. Here is the method:
Animal use was in accordance with the Institutional Animal Ethics Committee and the Canadian Council on Animal Care guidelines for the use of experimental animals. Sprague Dawley (275-350 g) rats were anaesthetized with sodium pentobarbital and their hearts were promptly removed in ice-cold saline and the cardiac membranes were prepared according to Harigaya and Schwartz.^lxvi
Nonspecific binding was defined as binding not displaced by 50 μM peptide. After an incubation period of 60 min at 22° C., membranes were submitted to UV irradiation at 365 nm for 15 min at 4° C. After centrifugation at 12 000 g for 15 min, the pellets were resuspended in 100 μl of sample buffer consisting of 62 mM Tris-HCl, pH 6.8, 2% SDS, 10% glycerol, 15% 2-mercapto-ethanol, and 0.05% bromophenol blue, and boiled for 5 min prior to being subjected to electrophoresis on 7.5% SDS-PAGE. The SDS/PAGE gels were fixed, colored in Coomassie Brilliant Blue R-250, dried, exposed to a storage phosphor intensifying screen (Amersham Biosciences), and analysed by using a Typhoon PhosphorImager (Amersham Biosciences) and ImageQuant 5.0 software to establish competition curves.
(In general: Displacement assays read how much labelled ligand stays bound in the presence of the test substance.)

[4] abbreviates: lactam peptide 1 μM, IL-1β 10 or 25 ng/mL.

*1 amine or outer side, *2 acyl side, *3 side chain or, on linkers, in order; H or OH if unused. Where a SMILES comes first, the peptide text is derived from it. [ ]: non-standard residue; d: D form. The star is where a group is joined. X12 = CC(C)C[C@@H](NC(=N)[C@@H](CCC(=O)O)N1C[C@H](N[*:1])CC1=O)C(=O)[*:2]; X13 = C[C@@H](O)[C@H](C(=O)[*:2])N1C[C@H](N[*:1])CC1=O; X7 = N[C@H]1CC(=O)N([C@H](Cc2c[nH]c3ccccc23)C(=O)*)C1; X11 = N[C@@H]1CCN([C@H](Cc2ccc(O)cc2)C(=O)*)C1=O; X1 = NCCCC[C@@H](C(N)=O)N1C[C@@H](N*)CC1=O; X6 = NCCCC[C@@H](C(N)=O)N1CC[C@@H](N*)C1=O; X8 = NCCCC[C@@H](C(N)=O)N1C[C@H](N*)CC1=O; d(aThr) = C[C@@H](O)[C@@H](N)C(=O)O A value given as a limit tells only on which side of the number the result lay.

T2 sequence (Q07969 whole entry): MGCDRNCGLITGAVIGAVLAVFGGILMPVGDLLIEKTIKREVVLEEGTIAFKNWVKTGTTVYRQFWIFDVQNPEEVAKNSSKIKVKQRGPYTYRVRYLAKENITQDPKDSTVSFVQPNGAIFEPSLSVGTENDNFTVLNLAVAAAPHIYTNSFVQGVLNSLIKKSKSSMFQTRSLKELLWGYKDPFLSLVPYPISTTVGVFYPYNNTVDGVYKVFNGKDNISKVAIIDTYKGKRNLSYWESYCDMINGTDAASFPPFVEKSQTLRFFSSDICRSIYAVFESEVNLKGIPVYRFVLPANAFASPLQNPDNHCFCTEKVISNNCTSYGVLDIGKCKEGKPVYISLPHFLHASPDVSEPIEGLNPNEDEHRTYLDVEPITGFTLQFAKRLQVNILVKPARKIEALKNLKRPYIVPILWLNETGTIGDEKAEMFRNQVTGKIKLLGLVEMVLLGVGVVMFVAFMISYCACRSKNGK
T1 sequence (Q92847 whole entry): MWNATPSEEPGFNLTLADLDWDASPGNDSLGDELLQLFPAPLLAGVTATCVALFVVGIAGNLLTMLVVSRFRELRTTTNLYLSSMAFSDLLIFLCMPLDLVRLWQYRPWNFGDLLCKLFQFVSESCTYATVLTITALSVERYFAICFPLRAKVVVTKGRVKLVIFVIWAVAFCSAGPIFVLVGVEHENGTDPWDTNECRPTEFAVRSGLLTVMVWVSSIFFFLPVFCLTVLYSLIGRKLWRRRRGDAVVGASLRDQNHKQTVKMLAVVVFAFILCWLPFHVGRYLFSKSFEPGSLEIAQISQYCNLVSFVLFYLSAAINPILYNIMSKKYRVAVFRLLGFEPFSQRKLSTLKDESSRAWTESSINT

One may read the melting point as the temperature of the solid-liquid transition. Turning to `COC(=O)C[C@H]1COS(=O)(=O)N1C(=O)OCC1c2ccccc2-c2ccccc21` [(4S)-17, (4S)-Methyl-2-[3-(9-fluorenylmethoxycarbonyl)-2,2-dioxo-1,2,3-oxathiazolidin-4-yl]acetate], the melting point fell in the range of 138 to 140 °C.
Consider `CC(C)C[C@@H](NC(=N)[C@@H](CCC(=O)O)N1C[C@H](NC(=O)[C@H](NC(=O)[C@@H](Cc2ccc(O)cc2)NC(=O)[C@H](N)CCCNC(=N)N)[C@@H](C)O)CC1=O)C(=O)N[C@H](C)C(N)=O` [Compound 78, D-Arg-D-Tyr-D-Thr-(R)-Bgl-D-Glu-D-Leu-D-Ala-NH2] (H-[dR][dY][d(aThr)][X12][dA]-NH2), for which, in series [1] (setting [4]), the “increase in efficacy compared to 101.10, inhibition of IL-1 induced TF-1 proliferation” value was 2.4 fold.
A word on the IC50: it is the concentration that gives 50% inhibition. A higher IC50 goes with weaker potency in that assay. Turning to `C[C@H](NC(=O)[C@@H](Cc1c[nH]c2ccccc12)N1C[C@@H](N)CC1=O)C(=O)N[C@@H](Cc1c[nH]c2ccccc12)C(=O)N[C@H](Cc1ccccc1)C(=O)N[C@@H](CCCCN)C(N)=O` [Compound 49, (S)-Bgl-D-Trp-Ala-Trp-D-Phe-Lys-NH2] (X7-AW[dF]K-NH2), the IC50 was 0.371 µM in series [2] and greater than 10 µM in series [3].
Consider `C[C@H](NC(=O)[C@@H](Cc1c[nH]c2ccccc12)NC(=O)[C@@H](N)Cc1c[nH]cn1)C(=O)N[C@@H](Cc1c[nH]c2ccccc12)C(=O)N[C@@H]1CCN([C@@H](CCCCN)C(N)=O)C1=O` [Compound 64, His-D-Trp-Ala-Trp-(R)-Agl-Lys-NH2] (H-H[dW]AW-X6), for which the IC50 in series [2] is greater than 10 µM; in series [3], 38.2 µM. Besides, in series [3] (compared with hexarelin), the “reduction of CD36 binding affinity, factor compared with hexarelin” value is 10.
For the compound “D-Arg-D-Tyr-D-Thr-(S)-Agl-D-Glu-D-Leu-D-Ala-NH2 [Compound 94]”, the “percentage of proliferation of TF-1 cells pre-treated with peptide” value in series [1] was determined as 132%.
In the case of `NCCCC[C@H](NC(=O)[C@H](Cc1ccccc1)NC(=O)[C@H](Cc1c[nH]c2ccccc12)N1CC[C@@H](NC(=O)[C@@H](Cc2c[nH]c3ccccc23)NC(=O)[C@@H](N)Cc2c[nH]cn2)C1=O)C(N)=O` [Compound 62, His-D-Trp-(R)-Agl-Trp-D-Phe-Lys-NH2], the IC50 was determined as 2.82 µM in series [2] and 17.3 µM in series [3].
Turning to “D-Arg-D-Tyr-(S)-Agl-D-Val-D-Glu-D-Leu-D-Ala-NH2 [Compound 93]”, the “percentage of proliferation of TF-1 cells pre-treated with peptide” value in series [1] is 150%.
Consider `CC(C)C[C@@H](NC(=O)[C@@H](CCC(=O)O)NC(=O)[C@@H](C(C)C)N1CC[C@@H](NC(=O)[C@@H](Cc2ccc(O)cc2)NC(=O)[C@H](N)CCCNC(=N)N)C1=O)C(=O)N[C@H](C)C(N)=O` [Compound 56, D-Arg-D-Tyr-(R)-Agl-D-Val-D-Glu-D-Leu-D-Ala-NH2], for which the “inhibition of IL-1 induced TF-1 proliferation (in words)” value in series [1] (setting [4]) is “failed to block proliferation”.
On to `CC(C)C[C@@H](NC(=O)[C@@H](CCC(=O)O)NC(=O)[C@H](NC(=O)[C@H](NC(=O)[C@@H](Cc1ccc(O)cc1)N1CC[C@@H](N)C1=O)[C@@H](C)O)C(C)C)C(=O)N[C@H](C)C(N)=O` [Compound 54, (R)-Agl-D-Tyr-D-Thr-D-Val-D-Glu-D-Leu-D-Ala-NH2] (X11-[d(aThr)][dV][dE][dL][dA]-NH2), for which the “increase in efficacy compared to 101.10, inhibition of IL-1 induced TF-1 proliferation” value in series [1] (setting [4]) amounted to 2.2 fold.
Turning to `C[C@H](NC(=O)[C@@H](Cc1c[nH]c2ccccc12)NC(=O)[C@@H](N)Cc1c[nH]cn1)C(=O)N[C@@H](Cc1c[nH]c2ccccc12)C(=O)N[C@@H]1CC(=O)N([C@@H](CCCCN)C(N)=O)C1` [Compound 70, His-D-Trp-Ala-Trp-(R)-Bgl-Lys-NH2] (H-H[dW]AW-X8), the IC50 in series [2] and in series [3] was greater than 10 µM in each case.
For `C[C@H](NC(=O)[C@@H](Cc1c[nH]c2ccccc12)NC(=O)[C@@H](N)Cc1c[nH]cn1)C(=O)N[C@H]1CCN([C@H](Cc2ccccc2)C(=O)N[C@@H](CCCCN)C(N)=O)C1=O` [Compound 47, His-D-Trp-Ala-(S)-Agl-D-Phe-Lys-NH2], the IC50 in series [2] and in series [3] was greater than 10 µM in each case.
Turning to `C[C@@H](C(=O)N[C@@H](Cc1c[nH]c2ccccc12)C(=O)N[C@H](Cc1ccccc1)C(=O)N[C@@H](CCCCN)C(N)=O)N1CC[C@@H](NC(=O)[C@@H](N)Cc2c[nH]cn2)C1=O` [Compound 61, His-(R)-Agl-Ala-Trp-D-Phe-Lys-NH2], the IC50 in series [2] and in series [3] was greater than 10 µM throughout.
For `C[C@H](NC(=O)[C@@H](Cc1c[nH]c2ccccc12)NC(=O)[C@@H](N)Cc1c[nH]cn1)C(=O)N[C@@H](Cc1c[nH]c2ccccc12)C(=O)N[C@H]1CC(=O)N([C@@H](CCCCN)C(N)=O)C1` [Compound 53, His-D-Trp-Ala-Trp-(S)-Bgl-Lys-NH2] (H-H[dW]AW-X1), the results for the IC50 in series [2] and in series [3] were 24.5 µM and 26.5 µM, respectively. In addition, in series [3] (factor of decrease, reference peptide not stated), the “drop of CD36 affinity, factor” value worked out at 15.
For the compound `CC(C)C[C@@H](NC(=O)[C@@H](CCC(=O)O)NC(=O)[C@H](NC(=O)[C@@H]([C@@H](C)O)N1C[C@H](NC(=O)[C@H](N)CCCNC(=N)N)CC1=O)C(C)C)C(=O)N[C@H](C)C(N)=O` [Compound 76, D-Arg-(R)-Bgl-D-Thr-D-Val-D-Glu-D-Leu-D-Ala-NH2] (H-[dR][X13][dV][dE][dL][dA]-NH2), the “increase in efficacy compared to 101.10, inhibition of IL-1 induced TF-1 proliferation” value in series [1] (setting [4]) was 1.7 fold.
